DC50 and Y data for 13 molecules are collected here from patent publication US20250100995A1, “CEREBLON BINDING COMPOUNDS, COMPOSITIONS THEREOF, AND METHODS OF TREATMENT THEREWITH” (CELGENE CORPORATION, priority 2021, published 2025).

Broadly, the DC50 is the concentration at which degradation of the target reaches its halfway point.

This test concerns the target T1, AR (Homo sapiens, UniProt P10275).
T1 construct: endogenous in cells; host or cells: VCaP cells
T1 sequence (P10275 1-920): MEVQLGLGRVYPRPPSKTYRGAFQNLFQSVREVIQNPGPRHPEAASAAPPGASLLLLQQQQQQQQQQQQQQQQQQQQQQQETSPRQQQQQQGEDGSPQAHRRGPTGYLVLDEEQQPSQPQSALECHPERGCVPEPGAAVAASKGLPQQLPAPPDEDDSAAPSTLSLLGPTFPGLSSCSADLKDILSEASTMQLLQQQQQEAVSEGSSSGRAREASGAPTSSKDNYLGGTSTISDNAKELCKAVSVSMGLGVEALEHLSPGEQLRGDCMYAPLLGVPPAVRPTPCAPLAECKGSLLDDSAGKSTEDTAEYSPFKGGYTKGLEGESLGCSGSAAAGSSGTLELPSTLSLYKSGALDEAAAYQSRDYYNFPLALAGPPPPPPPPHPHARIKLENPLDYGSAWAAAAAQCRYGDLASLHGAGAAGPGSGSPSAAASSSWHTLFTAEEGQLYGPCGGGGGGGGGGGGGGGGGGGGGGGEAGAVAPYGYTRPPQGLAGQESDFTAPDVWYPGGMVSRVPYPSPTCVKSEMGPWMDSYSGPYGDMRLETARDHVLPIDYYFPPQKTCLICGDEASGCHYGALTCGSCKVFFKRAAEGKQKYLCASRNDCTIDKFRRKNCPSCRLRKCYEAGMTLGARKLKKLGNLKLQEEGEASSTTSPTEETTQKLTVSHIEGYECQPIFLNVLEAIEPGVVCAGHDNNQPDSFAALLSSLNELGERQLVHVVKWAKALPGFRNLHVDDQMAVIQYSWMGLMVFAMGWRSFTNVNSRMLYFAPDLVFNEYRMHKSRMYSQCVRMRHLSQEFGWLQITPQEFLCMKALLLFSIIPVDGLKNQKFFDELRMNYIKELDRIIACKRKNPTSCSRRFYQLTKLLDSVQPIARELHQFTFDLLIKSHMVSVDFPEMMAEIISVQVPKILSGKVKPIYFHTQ
As to the kind of experiment: VCAP AR Degradation Assay. It counts as cell-based. The following applies: VCaP cells, 24 h, AR ELISA; for DC50: concentration of compound when AR level = 50% of DMSO control; for Y: lowest measured AR level normalized to DMSO control (AR degradation efficiency). The protocol:
VCAP AR Degradation Assay. Test compounds were pre-dispensed into a Corning CellBind 96-well clear bottom plate (Cat #3300) using an acoustic dispenser to make a 10-point concentration series at 1:3 dilution for each compound. The final top concentration of each compound was 5 μM. DMSO at a final concentration of 0.1% was used as a control. VCaP cells cultured in DMEM with 8% fetal bovine serum (FBS) were seeded at 50K cells per well in a 200 μL volume into the compound plate and incubated at 37° C. in a CO2 incubator for 24 h. The medium was carefully removed from the cells and the plate was placed on ice. One hundred μL of ice-cold 1× cell lysis buffer from Cell Signaling Technologies (Cat #9803) was added to each well of the cells and the plate was incubated at 4° C. on a shaker for 1 h. Fifteen μL of cell lysate was used for AR ELISA detection using a PathScan Total Sandwich AR ELISA kit (Cell Signaling Technology, Cat #12580). AR levels in compound-treated wells were normalized to that of DMSO control and expressed as percent of control (PoC) (y). A Four Parameter Logistic Model (Sigmoidal Dose-Response Model) was used to determine the compound's DC50, and EC50, using the following equation: […]
The lowest measured AR level normalized to DMSO control in response to compound treatment, termed Y value, was used to characterize the compound-mediated AR degradation efficiency.
On the technique in general: ELISA stands for enzyme-linked immunosorbent assay.

Structures can show the parent of a compound that is named as a salt.

In the case of `C[C@@H]1CN(CCCC[C@H]2CC[C@H](N3C(=S)N(c4ccc(C#N)c(C(F)(F)F)c4)C(=O)C3(C)C)CC2)C[C@H](C)N1CC(=O)Nc1cc(C2CCC(=O)NC2=O)ccn1` (stereo partly drawn) [Cmpd 14, 2-((2R,6S)-4-(4-(trans-4-(3-(4-Cyano-3-(trifluoromethyl)phenyl)-5,5-dimethyl-4-oxo-2-thioxoimidazolidin-1-yl)cyclohexyl)butyl)-2,6-dimethylpiperazin-1-yl)-N-(4-(2,6-dioxopiperidin-3-yl)pyridin-2-yl)acetamide hydrochloride], the DC50 was 5 to 50 nM and the Y entry is recorded as “* (0<Y≤20%)”.
`C[C@@H]1CN(CCO[C@H]2CC[C@H](N3C(=S)N(c4ccc(C#N)c(C(F)(F)F)c4)C(=O)C3(C)C)CC2)C[C@H](C)N1CC(=O)Nc1ccc(N2CCC(=O)NC2=O)cn1` [Cmpd 3, 2-((2R,6S)-4-(2-((trans-4-(3-(4-Cyano-3-(trifluoromethyl)phenyl)-5,5-dimethyl-4-oxo-2-thioxoimidazolidin-1-yl)cyclohexyl)oxy)ethyl)-2,6-dimethylpiperazin-1-yl)-N-(5-(2,4-dioxotetrahydropyrimidin-1(2H)-yl)pyridin-2-yl)acetamide hydrochloride]: the DC50 is greater than 200 nM and the Y result is given as “*** (40%<Y<80%)”.
On to `C[C@@H]1C[C@H](OCCO[C@H]2CC[C@H](N3C(=S)N(c4cnc(C#N)c(C(F)(F)F)c4)C(=O)C3(C)C)CC2)C[C@H](C)N1CC(=O)Nc1cc(C2CCC(=O)NC2=O)ccn1` (stereo partly drawn) [Cmpd 26, 2-((2R,4r,6S)-4-(2-(((trans)-4-(3-(6-Cyano-5-(trifluoromethyl)pyridin-3-yl)-5,5-dimethyl-4-oxo-2-thioxoimidazolidin-1-yl)cyclohexyl)oxy)ethoxy)-2,6-dimethylpiperidin-1-yl)-N-(4-(2,6-dioxopiperidin-3-yl)pyridin-2-yl)acetamide], for which the DC50 is no more than 5 nM and the Y entry is listed as “** (20%<Y≤40%)”.
The matching figures for `CC1(C)C(=O)N(c2ccc(C#N)c(C(F)(F)F)c2)C(=S)N1[C@H]1CC[C@H](OCCN2CCN(CC(=O)Nc3cc(C4CCC(=O)NC4=O)ccn3)[C@@H](C(F)(F)F)C2)CC1` (stereo partly drawn) [Cmpd 21, 2-((R)-4-(2-(((trans)-4-(3-(4-Cyano-3-(trifluoromethyl)phenyl)-5,5-dimethyl-4-oxo-2-thioxoimidazolidin-1-yl)cyclohexyl)oxy)ethyl)-2-(trifluoromethyl)piperazin-1-yl)-N-(4-(2,6-dioxopiperidin-3-yl)pyridin-2-yl)acetamide]: 5 to 50 nM and “* (0<Y≤20%)”.
`C[C@@H]1C[C@H](OCCC[C@H]2CC[C@H](N3C(=S)N(c4ccc(C#N)c(C(F)(F)F)c4)C(=O)C3(C)C)CC2)C[C@H](C)N1CC(=O)Nc1cc(C2CCC(=O)NC2=O)ccn1` (stereo partly drawn) [Cmpd 28, 2-((2R,4r,6S)-4-(3-((trans)-4-(3-(4-Cyano-3-(trifluoromethyl)phenyl)-5,5-dimethyl-4-oxo-2-thioxoimidazolidin-1-yl)cyclohexyl)propoxy)-2,6-dimethylpiperidin-1-yl)-N-(4-(2,6-dioxopiperidin-3-yl)pyridin-2-yl)acetamide]: the DC50 is 5 to 50 nM and the Y entry is recorded as “** (20%<Y≤40%)”.
For the molecule `C[C@@H]1CN(CCO[C@H]2CC[C@H](N3C(=S)N(c4ccc(C#N)c(C(F)(F)F)c4)C(=O)C3(C)C)CC2)C[C@H](C)N1CC(=O)Nc1cc(C2(C)CCC(=O)NC2=O)ccn1` (single isomer, unassigned) [Cmpd 8, hydrochloride], the DC50 was no more than 5 nM. The Y entry (hydrochloride) is “* (0<Y≤20%)”.
`C[C@@H]1CN(CCO[C@H]2CC[C@H](N3C(=S)N(c4ccc(C#N)c(C(F)(F)F)c4)C(=O)C3(C)C)CC2)C[C@H](C)N1CC(=O)Nc1ccc(C2(C)CCC(=O)NC2=O)cn1` (single isomer, unassigned) [Cmpd 5, hydrochloride]: the DC50 is greater than 200 nM and the Y entry is listed as “*** (40%<Y<80%)”.
`C[C@@H]1CN(CCCC[C@H]2CC[C@H](N3C(=S)N(c4ccc(C#N)c(C(F)(F)F)c4)C(=O)C3(C)C)CC2)C[C@H](C)N1CC(=O)Nc1ccc(N2CCC(=O)NC2=O)cn1` [Cmpd 18, 2-((2R,6S)-4-(4-((trans)-4-(3-(4-Cyano-3-(trifluoromethyl)phenyl)-5,5-dimethyl-4-oxo-2-thioxoimidazolidin-1-yl)cyclohexyl)butyl)-2,6-dimethylpiperazin-1-yl)-N-(5-(2,4-dioxotetrahydropyrimidin-1(2H)-yl)pyridin-2-yl)acetamide]: the DC50 is 5 to 50 nM and the Y result is recorded as “** (20%<Y≤40%)”.
Regarding `C[C@@H]1CN(CCO[C@H]2CC[C@H](N3C(=S)N(c4ccc(C#N)c(C(F)(F)F)c4)C(=O)C3(C)C)CC2)C[C@H](C)N1CCCOc1ccc(N2CCC(=O)NC2=O)cn1` [Cmpd 12, 4-(3-(trans-4-(2-((3R,5S)-4-(3-((5-(2,4-Dioxotetrahydropyrimidin-1(2H)-yl)pyridin-2-yl)oxy)propyl)-3,5-dimethylpiperazin-1-yl)ethoxy)cyclohexyl)-4,4-dimethyl-5-oxo-2-thioxoimidazolidin-1-yl)-2-(trifluoromethyl)benzonitrile hydrochloride], the DC50 was greater than 200 nM and the Y result is “*** (40%<Y<80%)”.
The matching figures for `CC1(C)C(=O)N(c2ccc(C#N)c(C(F)(F)F)c2)C(=S)N1[C@H]1CC[C@H](OCCCN2CCN(CC(=O)Nc3cc(C4CCC(=O)NC4=O)ccn3)[C@@H](C(F)(F)F)C2)CC1` (stereo partly drawn) [Cmpd 24, 2-((R)-4-(3-(((trans)-4-(3-(4-Cyano-3-(trifluoromethyl)phenyl)-5,5-dimethyl-4-oxo-2-thioxoimidazolidin-1-yl)cyclohexyl)oxy)propyl)-2-(trifluoromethyl)piperazin-1-yl)-N-(4-(2,6-dioxopiperidin-3-yl)pyridin-2-yl)acetamide]: no more than 5 nM and “* (0<Y≤20%)”.
Consider `C[C@@H]1C[C@H](OCCO[C@H]2CC[C@H](N3C(=S)N(c4ccc(C#N)c(C(F)(F)F)c4)C(=O)C3(C)C)CC2)C[C@H](C)N1CC(=O)Nc1cc(C2CCC(=O)NC2=O)ccn1` (stereo partly drawn) [Cmpd 29, 2-((2R,4r,6S)-4-(2-(((trans)-4-(3-(4-Cyano-3-(trifluoromethyl)phenyl)-5,5-dimethyl-4-oxo-2-thioxoimidazolidin-1-yl)cyclohexyl)oxy)ethoxy)-2,6-dimethylpiperidin-1-yl)-N-(4-(2,6-dioxopiperidin-3-yl)pyridin-2-yl)acetamide], for which the DC50 was 5 to 50 nM and the Y result is on record as “** (20%<Y≤40%)”.
In the case of `C[C@@H]1C[C@H](OCC[C@H]2CC[C@H](N3C(=S)N(c4cnc(C#N)c(C(F)(F)F)c4)C(=O)C3(C)C)CC2)C[C@H](C)N1CC(=O)Nc1cc(C2CCC(=O)NC2=O)ccn1` (stereo partly drawn) [Cmpd 30, 2-((2R,4r,6S)-4-(2-((trans)-4-(3-(6-Cyano-5-(trifluoromethyl)pyridin-3-yl)-5,5-dimethyl-4-oxo-2-thioxoimidazolidin-1-yl)cyclohexyl)ethoxy)-2,6-dimethylpiperidin-1-yl)-N-(4-(2,6-dioxopiperidin-3-yl)pyridin-2-yl)acetamide], the DC50 lay within 5 to 50 nM and the Y entry is listed as “* (0<Y≤20%)”.
For `C[C@@H]1CN(CCO[C@H]2CC[C@H](N3C(=S)N(c4ccc(C#N)c(C(F)(F)F)c4)C(=O)C3(C)C)CC2)C[C@H](C)N1CCCOc1cc(C2CCC(=O)NC2=O)ccn1` (stereo partly drawn) [Cmpd 16, 4-(3-(trans-4-(2-((3R,5S)-4-(3-((4-(2,6-Dioxopiperidin-3-yl)pyridin-2-yl)oxy)propyl)-3,5-dimethylpiperazin-1-yl)ethoxy)cyclohexyl)-4,4-dimethyl-5-oxo-2-thioxoimidazolidin-1-yl)-2-(trifluoromethyl)benzonitrile hydrochloride], the DC50 was 50 to 200 nM and the Y entry is recorded as “*** (40%<Y<80%)”.
